{
  "source": "patent US10464925B2",
  "about": "“Methods to induce targeted protein degradation through bifunctional molecules” (Dana-Farber Cancer Institute, Inc., priority 2015, dated 2019)",
  "key": {"BRDT": {"biological_target": "BRDT (Homo sapiens, UniProt Q58F21)", "test": "BRDT IC50 (Table 4)", "type": "binding", "settings": "read-out: IC50 (nM) BRDT"}, "CUTL1": {"tested_on": "CUTL1", "test": "Cell viability, ATPlite 48 hours, CUTLL1", "type": "cell-based", "settings": "CUTL1 cells", "description": "(§1) ATP content was measured as a surrogate for cellular viability using ATPlite (Promega)."}, "DND41": {"tested_on": "DND41", "test": "Cell viability, ATPlite 48 hours, DND41", "type": "cell-based", "settings": "DND41 cells", "description": "as §1"}, "MOLT4": {"tested_on": "MOLT4", "test": "Cell viability, ATPlite 48 hours, MOLT4", "type": "cell-based", "settings": "Homo sapiens, MOLT-4; MOLT4 cells", "description": "as §1"}, "Calu6": {"tested_on": "Calu6", "test": "Cell viability, ATPlite 72 hours", "type": "cell-based", "settings": "Homo sapiens, Calu-6", "experimental": "Various cell lines were seeded into 384-well tissue culture-treated plates at a density of 2,000 cells per well in a volume of 50 μL/well. […] After 72 hours of incubation, cells were analyzed for cell viability using the ATPlite (PerkinElmer) Luminescence Assay Kit per the manufacturer's instructions, using ATP content as a surrogate for viable cell number. Luminescence was read on an EnVision 2104 Multilabel Plate Reader (PerkinElmer)."}, "NGP": {"tested_on": "NGP", "test": "Cell viability, ATPlite 72 hours", "type": "cell-based", "settings": "NGP; for IC50: read-out: IC50 (nM) NGP"}, "CCF-STTG1": {"tested_on": "CCF-STTG1", "test": "Cell viability, ATPlite 72 hours", "type": "cell-based", "settings": "Homo sapiens"}, "PANC032": {"tested_on": "PANC032", "test": "cells", "settings": "72 h"}, "KP2": {"tested_on": "KP2", "test": "cells", "settings": "72 h"}, "ASPC1": {"tested_on": "ASPC1", "test": "cells", "settings": "Homo sapiens, ASPC1, 72 h"}, "A549": {"tested_on": "A549", "test": "cells", "settings": "Homo sapiens, A549, 72 h"}, "NMC-G1": {"tested_on": "NMC-G1", "test": "cells", "settings": "72 h"}, "HCT116": {"tested_on": "HCT116", "test": "cells", "settings": "Homo sapiens, HCT-116, 72 h"}, "MC116": {"tested_on": "MC116", "test": "cells", "settings": "Homo sapiens, MC116, 72 h"}, "NCI-H460": {"tested_on": "NCI-H460", "test": "cells", "settings": "Homo sapiens, NCI-H460, 72 h"}, "NCI-H838": {"tested_on": "NCI-H838", "test": "cells", "settings": "Homo sapiens, NCI-H838, 72 h"}, "ZR-75-1_YMB-1": {"tested_on": "ZR-75-1_YMB-1", "test": "cells", "settings": "72 h"}, "LCLC-103H": {"tested_on": "LCLC-103H", "test": "cells", "settings": "Homo sapiens, 72 h"}, "SW1783": {"tested_on": "SW1783", "test": "cells", "settings": "Homo sapiens, SW1783, 72 h"}, "MKN45": {"tested_on": "MKN45", "test": "cells", "settings": "Homo sapiens, MKN-45, 72 h"}, "HCC1315": {"tested_on": "HCC1315", "test": "cells", "settings": "72 h"}, "KP-N-YN": {"tested_on": "KP-N-YN", "test": "cells", "settings": "72 h"}, "MDA-MB-231": {"tested_on": "MDA-MB-231", "test": "cells", "settings": "Homo sapiens, MDA-MB-231, 72 h"}, "SBC-5": {"tested_on": "SBC-5", "test": "cells", "settings": "Homo sapiens, SBC-5, 72 h"}, "SKMEL28": {"tested_on": "SKMEL28", "test": "cells", "settings": "Homo sapiens, SK-MEL-28, 72 h"}, "SUM149": {"tested_on": "SUM149", "test": "cells", "settings": "SUM149, 72 h"}, "SUM149R": {"tested_on": "SUM149R", "test": "cells", "settings": "72 h"}, "SUM159": {"tested_on": "SUM159", "test": "cells", "settings": "SUM159, 72 h"}, "SUM159R": {"tested_on": "SUM159R", "test": "cells", "settings": "72 h"}, "SUM185": {"tested_on": "SUM185", "test": "cells", "settings": "72 h"}, "T47D": {"tested_on": "T47D", "test": "cells", "settings": "Homo sapiens, 72 h"}},
  "note": "Where two headings read alike, the source gives them in different places.",
  "data": [
    {"smiles": "Cc1sc2c(c1C)C(c1ccc(Cl)cc1)=N[C@@H](CC(=O)NCCCCCCCCNC(=O)COc1cccc3c1C(=O)N(C1CCC(=O)NC1=O)C3=O)c1nnc(C)n1-2", "note": "(stereo partly shown) [dBET6]", "values": [
      {"measurement": "IC50", "setting": "BRDT", "result": 56, "unit": "nM"},
      {"measurement": "IC50", "setting": "CUTL1", "result": 70.8, "unit": "nM"},
      {"measurement": "IC50", "setting": "DND41", "result": 34.4, "unit": "nM"},
      {"measurement": "IC50", "setting": "MOLT4", "result": 65.3, "unit": "nM"},
      {"measurement": "Emax", "setting": "Calu6", "result": 51.7, "unit": "%"},
      {"measurement": "IC50", "setting": "Calu6", "result": 233, "unit": "nM"},
      {"measurement": "Emax", "setting": "NGP; 72 h, read-out: Emax (%) NGP", "result": 21.9, "unit": "%"},
      {"measurement": "IC50", "setting": "NGP; 72 h", "result": 188, "unit": "nM"},
      {"measurement": "IC50", "setting": "NGP", "result": 188, "unit": "nM"},
      {"measurement": "Emax", "setting": "CCF-STTG1", "result": 45.8, "unit": "%"},
      {"measurement": "Emax", "setting": "PANC032; read-out: Emax (%) PANC032", "result": 53.2, "unit": "%"},
      {"measurement": "IC50", "setting": "PANC032; read-out: IC50 (nM) PANC032", "result": 1450, "unit": "nM"},
      {"measurement": "Emax", "setting": "KP2; read-out: Emax (%) KP2", "result": 20.7, "unit": "%"},
      {"measurement": "IC50", "setting": "KP2; read-out: IC50 (nM) KP2", "result": 513, "unit": "nM"},
      {"measurement": "Emax", "setting": "ASPC1; read-out: Emax (%) ASPC1", "result": 50.4, "unit": "%"},
      {"measurement": "IC50", "setting": "ASPC1; read-out: IC50 (nM) ASPC1", "result": 1460, "unit": "nM"},
      {"measurement": "Emax", "setting": "A549; read-out: Emax (%) A549", "result": 30.9, "unit": "%"},
      {"measurement": "IC50", "setting": "A549; read-out: IC50 (nM) A549", "result": 1900, "unit": "nM"},
      {"measurement": "Emax", "setting": "NMC-G1; read-out: Emax (%) NMC-G1", "result": 36.6, "unit": "%"},
      {"measurement": "IC50", "setting": "NMC-G1; read-out: IC50 (nM) NMC-G1", "result": 70, "unit": "nM"},
      {"measurement": "Emax", "setting": "HCT116; read-out: Emax (%) HCT116", "result": 26.9, "unit": "%"},
      {"measurement": "IC50", "setting": "HCT116; read-out: IC50 (nM) HCT116", "result": 154, "unit": "nM"},
      {"measurement": "Emax", "setting": "MC116; read-out: Emax (%) MC116", "result": 0.32, "unit": "%"},
      {"measurement": "IC50", "setting": "MC116; read-out: IC50 (nM) MC116", "result": 20.5, "unit": "nM"},
      {"measurement": "Emax", "setting": "NCI-H460; read-out: Emax (%) NCI-H460", "result": 34.4, "unit": "%"},
      {"measurement": "IC50", "setting": "NCI-H460; read-out: IC50 (nM) NCI-H460", "result": 438, "unit": "nM"},
      {"measurement": "Emax", "setting": "NCI-H838; read-out: Emax (%) NCI-H838", "result": 32.2, "unit": "%"},
      {"measurement": "IC50", "setting": "NCI-H838; read-out: IC50 (nM) NCI-H838", "result": 52, "unit": "nM"},
      {"measurement": "Emax", "setting": "ZR-75-1_YMB-1; read-out: Emax (%) ZR-75-1_YMB-1", "result": 21.6, "unit": "%"},
      {"measurement": "IC50", "setting": "ZR-75-1_YMB-1; read-out: IC50 (nM) ZR-75-1_YMB-1", "result": 23.5, "unit": "nM"},
      {"measurement": "Emax", "setting": "LCLC-103H; read-out: Emax (%) LCLC-103H", "result": 24, "unit": "%"},
      {"measurement": "IC50", "setting": "LCLC-103H; read-out: IC50 (nM) LCLC-103H", "result": 84.2, "unit": "nM"},
      {"measurement": "Emax", "setting": "SW1783; read-out: Emax (%) SW1783", "result": 22.2, "unit": "%"},
      {"measurement": "IC50", "setting": "SW1783; read-out: IC50 (nM) SW1783", "result": 38.2, "unit": "nM"},
      {"measurement": "Emax", "setting": "MKN45; read-out: Emax (%) MKN45", "result": 19.4, "unit": "%"},
      {"measurement": "IC50", "setting": "MKN45; read-out: IC50 (nM) MKN45", "result": 41.1, "unit": "nM"},
      {"measurement": "Emax", "setting": "HCC1315; read-out: Emax (%) HCC1315", "result": 41.2, "unit": "%"},
      {"measurement": "IC50", "setting": "HCC1315; read-out: IC50 (nM) HCC1315", "result": 1060, "unit": "nM"},
      {"measurement": "Emax", "setting": "KP-N-YN; read-out: Emax (%) KP-N-YN", "result": 42.8, "unit": "%"},
      {"measurement": "IC50", "setting": "KP-N-YN; read-out: IC50 (nM) KP-N-YN", "result": 9.41, "unit": "nM"},
      {"measurement": "Emax", "setting": "MDA-MB-231; read-out: Emax (%) MDA-MB-231", "result": 24.2, "unit": "%"},
      {"measurement": "IC50", "setting": "MDA-MB-231; read-out: IC50 (nM) MDA-MB-231", "result": 146, "unit": "nM"},
      {"measurement": "Emax", "setting": "SBC-5; read-out: Emax (%) SBC-5", "result": 21.6, "unit": "%"},
      {"measurement": "IC50", "setting": "SBC-5; read-out: IC50 (nM) SBC-5", "result": 841, "unit": "nM"},
      {"measurement": "Emax", "setting": "SKMEL28; read-out: Emax (%) SKMEL28", "result": 59, "unit": "%"},
      {"measurement": "IC50", "setting": "SKMEL28; read-out: IC50 (nM) SKMEL28", "result": 474, "unit": "nM"},
      {"measurement": "Emax", "setting": "SUM149; read-out: Emax (%) SUM149", "result": 27.9, "unit": "%"},
      {"measurement": "IC50", "setting": "SUM149; read-out: IC50 (nM) SUM149", "result": 131, "unit": "nM"},
      {"measurement": "Emax", "setting": "SUM149R; read-out: Emax (%) SUM149R", "result": 10.6, "unit": "%"},
      {"measurement": "IC50", "setting": "SUM149R; read-out: IC50 (nM) SUM149R", "result": 18.5, "unit": "nM"},
      {"measurement": "Emax", "setting": "SUM159; read-out: Emax (%) SUM159", "result": 12, "unit": "%"},
      {"measurement": "IC50", "setting": "SUM159; read-out: IC50 (nM) SUM159", "result": 32.5, "unit": "nM"},
      {"measurement": "Emax", "setting": "SUM159R; read-out: Emax (%) SUM159R", "result": 36, "unit": "%"},
      {"measurement": "IC50", "setting": "SUM159R; read-out: IC50 (nM) SUM159R", "result": 92.4, "unit": "nM"},
      {"measurement": "Emax", "setting": "SUM185; read-out: Emax (%) SUM185", "result": 22.9, "unit": "%"},
      {"measurement": "IC50", "setting": "SUM185; read-out: IC50 (nM) SUM185", "result": 1.44, "unit": "nM"},
      {"measurement": "Emax", "setting": "T47D; read-out: Emax (%) T47D", "result": 49.4, "unit": "%"},
      {"measurement": "IC50", "setting": "T47D; read-out: IC50 (nM) T47D", "result": 7.46, "unit": "nM"}
    ]}
  ]
}
